Assay results published in US9695155B2, “Herbicidal substituted pyrimidinyloxy benzene compounds” (E. I. DU PONT DE NEMOURS AND COMPANY, priority 2013, dated 2017).

Tests used:
dayflower = test: Test E postemergence; type: in vivo, Commelina virginica
Description: (§1) Seeds of plant species selected from corn (Zea mays), soybean (Glycine max), velvetleaf (Abutilon theophrasti), lambsquarters (Chenopodium album), wild poinsettia (Euphorbia heterophylla), palmer pigweed (Amaranthus palmeri), waterhemp (common waterhemp, Amaranthus rudis), surinam grass (Brachiaria decumbens), large (Lg) crabgrass (Digitaria sanguinalis), Brazilian crabgrass (Digitaria horizontalis), fall panicum (Panicum dichotomiflorum), giant foxtail (Setaria faberii), green foxtail (Setaria viridis), goosegrass (Eleusine indica), johnsongrass (Sorghum halepense), ragweed (common ragweed, Ambrosia elatior), barnyardgrass (Echinochloa crus-galli), sandbur (southern sandbur, Cenchrus echinatus), arrowleaf sida (Sida rhombifolia), Italian ryegrass (Lolium multiflorum), dayflower (Virginia (VA) dayflower, Commelina virginica), field bindweed (Convolvulus arvensis), morningglory (Ipomoea coccinea), nightshade (eastern black nightshade, Solanum ptycanthum), kochia (Kochia scoparia), yellow nutsedge (Cyperus esculentus), cocklebur (common cocklebur, Xanthium strumarium), smartweed (ladysthumb smartweed, and hairy beggarticks (Bidens pilosa), were planted into a silt loam soil and treated preemergence with test chemicals formulated in a non-phytotoxic solvent mixture which included a surfactant.
(§2) At the same time, plants from these crop and weed species and also horseweed (Canada horseweed, Conyza canadensis), waterhemp_RES1, (ALS & Triazine resistant common waterhemp, Amaranthus rudis), and waterhemp_RES2, (ALS & HPPD resistant common waterhemp, Amaranthus rudis) were planted in pots containing Redi-Earth® planting medium (Scotts Company, 14111 Scottslawn Road, Marysville, Ohio 43041) comprising spaghnum peat moss, vermiculite, wetting agent and starter nutrients were treated with postemergence applications of test chemicals formulated in the same manner. Plants ranged in height from 2 to 18 cm for postemergence treatments (1- to 4-leaf stage). Treated plants and controls were maintained in a greenhouse for 14 to 21 days, after which time all species were compared to controls and visually evaluated. Plant response ratings, summarized in Table E, are based on a scale of 0 to 100 where 0 is no effect and 100 is complete control. A dash (-) response means no test result.

Italian ryegrass = test: Test E postemergence; type: in vivo, Lolium multiflorum
Description: as §1, §2

green foxtail = test: Test D postemergence; type: in vivo, Setaria viridis; conditions: Setaria viridis, post-emergence
In short: (§3)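 After treatment, visual injury versus untreated plants, 0–100 scale, assessed at 7 to 21 days. Applications were made preemergence to silt loam-sown seed and postemergence to seedlings 2–18 cm high in potting medium.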

canarygrass = test: Test D postemergence; type: in vivo, Phalaris minor; conditions: Phalaris minor, post-emergence
In short: as §3

lambsquarters [1] = test: Test D preemergence; type: in vivo, Chenopodium album; conditions: Chenopodium album, pre-emergence
In short: as §3

kochia = test: Test D postemergence; type: in vivo, Kochia scoparia; conditions: Bassia scoparia, post-emergence
In short: as §3

deadnettle = test: Test D preemergence; type: in vivo, Lamium amplexicaule; conditions: Lamium amplexicaule, pre-emergence
In short: as §3

galium = test: Test D postemergence; type: in vivo, Galium aparine; conditions: Galium, post-emergence
In short: as §3

oilseed rape = test: Test D postemergence; type: in vivo, Brassica napus; conditions: Brassica napus, post-emergence
In short: as §3

field violet = test: Test D preemergence; type: in vivo, Viola arvensis; conditions: Viola arvensis, pre-emergence
In short: as §3

lambsquarters [2] = test: Test D postemergence; type: in vivo, Chenopodium album; conditions: Chenopodium album, post-emergence
In short: as §3

wild oat = test: Test D postemergence; type: in vivo, Avena fatua; conditions: Avena fatua, post-emergence
In short: as §3

blackgrass = test: Test D postemergence; type: in vivo, Alopecurus myosuroides; conditions: Alopecurus myosuroides, post-emergence, Postemergence, scale 0 to 100 (0 no effect, 100 complete control), read-out: Plant response rating, Blackgrass
In short: as §3

[3] = Postemergence, 31 g ai/ha, scale 0 to 100
[4] = Postemergence, 62 g ai/ha, scale 0 to 100
[5] = Postemergence, 125 g ai/ha, scale 0 to 100
[6] = Postemergence, 250 g ai/ha, scale 0 to 100
[7] = postemergence, 16 g ai/ha, scale 0 to 100, 0 no effect, 100 complete control
[8] = postemergence, 8 g ai/ha, scale 0 to 100, 0 no effect, 100 complete control

SMILES: FC(F)(F)c1cnn(-c2ccccc2Oc2ncc(Cl)cn2)c1 [Compound 16]
- Plant response rating, Dayflower, VA (dayflower; [3]): 10
- Plant response rating, Dayflower, VA (dayflower; [4]): 15
- Plant response rating, Dayflower, VA (dayflower; [5]): 30
- Plant response rating, Dayflower, VA (dayflower; [6]): 40
- Plant response rating, Dayflower, VA (dayflower; [7]): 0
- Plant response rating, Ryegrass, Italian (Italian ryegrass; [3]): 0
- Plant response rating, Ryegrass, Italian (Italian ryegrass; [4]): 0
- Plant response rating, Ryegrass, Italian (Italian ryegrass; [5]): 0
- Plant response rating, Ryegrass, Italian (Italian ryegrass; [6]): 0
- Plant response rating, Ryegrass, Italian (Italian ryegrass; [7]): 0

SMILES: Clc1cnc(Oc2cccc(Br)c2-n2cc(Br)cn2)nc1 [Compound 65]
- Plant response rating, Dayflower, VA (dayflower; [3]): 10
- Plant response rating, Dayflower, VA (dayflower; [4]): 10
- Plant response rating, Dayflower, VA (dayflower; [5]): 20
- Plant response rating, Dayflower, VA (dayflower; [8]): 5
- Plant response rating, Dayflower, VA (dayflower; [7]): 5
- Plant response rating, Ryegrass, Italian (Italian ryegrass; [3]): 0
- Plant response rating, Ryegrass, Italian (Italian ryegrass; [4]): 0
- Plant response rating, Ryegrass, Italian (Italian ryegrass; [5]): 0
- Plant response rating, Ryegrass, Italian (Italian ryegrass; [8]): 0
- Plant response rating, Ryegrass, Italian (Italian ryegrass; [7]): 0

SMILES: FC(F)(F)COc1cnn(-c2ccccc2Oc2ncc(Cl)cn2)c1 [Compound 138, 5-chloro-2-[2-[4-(2,2,2-trifluoroethoxy)-1H-pyrazol-1-yl]phenoxy]pyrimidine]
- pest or weed control at 16 g/ha (green foxtail; 16 g ai/ha, scale 0-100, read-out: Plant response rating, Foxtail, Green): 20%
- pest or weed control at 31 g/ha (green foxtail; 31 g ai/ha, scale 0 to 100 (0 no effect, 100 complete control), read-out: Plant response rating, Foxtail, Green): 20%
- pest or weed control at 62 g/ha (green foxtail; 62 g ai/ha, scale 0 to 100 (0 no effect, 100 complete control), read-out: Plant response rating, Foxtail, Green): 20%
- pest or weed control at 125 g/ha (green foxtail; 125 g ai/ha, scale 0 to 100 (0 no effect, 100 complete control), read-out: Plant response rating, Foxtail, Green): 30%
- pest or weed control at 16 g/ha (canarygrass; 16 g ai/ha, scale 0-100, read-out: Plant response rating, Canarygrass): 5%
- pest or weed control at 31 g/ha (canarygrass; 31 g ai/ha, scale 0 to 100 (0 no effect, 100 complete control), read-out: Plant response rating, Canarygrass): 10%
- pest or weed control at 62 g/ha (canarygrass; 62 g ai/ha, scale 0 to 100 (0 no effect, 100 complete control), read-out: Plant response rating, Canarygrass): 10%
- pest or weed control at 125 g/ha (canarygrass; 125 g ai/ha, scale 0 to 100 (0 no effect, 100 complete control), read-out: Plant response rating, Canarygrass): 15%
- pest or weed control at 16 g/ha (lambsquarters [1]; 16 g ai/ha, scale 0 (no effect) to 100 (complete control), read-out: Plant response rating, Lambsquarters): 45%
- pest or weed control at 31 g/ha (lambsquarters [1]; 31 g ai/ha, scale 0-100, read-out: Plant response rating, Lambsquarters): 10%
- pest or weed control at 62 g/ha (lambsquarters [1]; 62 g ai/ha, scale 0-100, read-out: Plant response rating, Lambsquarters): 60%
- pest or weed control at 125 g/ha (lambsquarters [1]; 125 g ai/ha, scale 0-100, read-out: Plant response rating, Lambsquarters): 100%
- pest or weed control at 16 g/ha (kochia; 16 g ai/ha, scale 0-100, read-out: Plant response rating, Kochia): 25%
- pest or weed control at 31 g/ha (kochia; 31 g ai/ha, scale 0 to 100 (0 no effect, 100 complete control), read-out: Plant response rating, Kochia): 40%
- pest or weed control at 62 g/ha (kochia; 62 g ai/ha, scale 0 to 100 (0 no effect, 100 complete control), read-out: Plant response rating, Kochia): 55%
- pest or weed control at 125 g/ha (kochia; 125 g ai/ha, scale 0 to 100 (0 no effect, 100 complete control), read-out: Plant response rating, Kochia): 75%
- pest or weed control at 16 g/ha (deadnettle; 16 g ai/ha, scale 0 (no effect) to 100 (complete control), read-out: Plant response rating, Deadnettle): 5%
- pest or weed control at 31 g/ha (deadnettle; 31 g ai/ha, scale 0-100, read-out: Plant response rating, Deadnettle): 5%
- pest or weed control at 62 g/ha (deadnettle; 62 g ai/ha, scale 0-100, read-out: Plant response rating, Deadnettle): 20%
- pest or weed control at 125 g/ha (deadnettle; 125 g ai/ha, scale 0-100, read-out: Plant response rating, Deadnettle): 30%
- pest or weed control at 16 g/ha (galium; 16 g ai/ha, scale 0-100, read-out: Plant response rating, Galium): 70%
- pest or weed control at 31 g/ha (galium; 31 g ai/ha, scale 0 to 100 (0 no effect, 100 complete control), read-out: Plant response rating, Galium): 70%
- pest or weed control at 62 g/ha (galium; 62 g ai/ha, scale 0 to 100 (0 no effect, 100 complete control), read-out: Plant response rating, Galium): 75%
- pest or weed control at 125 g/ha (galium; 125 g ai/ha, scale 0 to 100 (0 no effect, 100 complete control), read-out: Plant response rating, Galium): 75%
- plant injury at 16 g/ha (oilseed rape; 16 g ai/ha, scale 0-100, read-out: Plant response rating, Oilseed Rape): 70%
- plant injury at 31 g/ha (oilseed rape; 31 g ai/ha, scale 0 to 100 (0 no effect, 100 complete control), read-out: Plant response rating, Oilseed Rape): 70%
- plant injury at 62 g/ha (oilseed rape; 62 g ai/ha, scale 0 to 100 (0 no effect, 100 complete control), read-out: Plant response rating, Oilseed Rape): 75%
- plant injury at 125 g/ha (oilseed rape; 125 g ai/ha, scale 0 to 100 (0 no effect, 100 complete control), read-out: Plant response rating, Oilseed Rape): 75%
- pest or weed control at 16 g/ha (field violet; 16 g ai/ha, scale 0 (no effect) to 100 (complete control), read-out: Plant response rating, Field Violet): 70%
- pest or weed control at 31 g/ha (field violet; 31 g ai/ha, scale 0-100, read-out: Plant response rating, Field Violet): 25%
- pest or weed control at 62 g/ha (field violet; 62 g ai/ha, scale 0-100, read-out: Plant response rating, Field Violet): 70%
- pest or weed control at 125 g/ha (field violet; 125 g ai/ha, scale 0-100, read-out: Plant response rating, Field Violet): 75%
- pest or weed control at 16 g/ha (lambsquarters [2]; 16 g ai/ha, scale 0-100, read-out: Plant response rating, Lambsquarters): 55%
- pest or weed control at 31 g/ha (lambsquarters [2]; 31 g ai/ha, scale 0 to 100 (0 no effect, 100 complete control), read-out: Plant response rating, Lambsquarters): 60%
- pest or weed control at 62 g/ha (lambsquarters [2]; 62 g ai/ha, scale 0 to 100 (0 no effect, 100 complete control), read-out: Plant response rating, Lambsquarters): 60%
- pest or weed control at 125 g/ha (lambsquarters [2]; 125 g ai/ha, scale 0 to 100 (0 no effect, 100 complete control), read-out: Plant response rating, Lambsquarters): 60%
- pest or weed control at 16 g/ha (wild oat; 16 g ai/ha, scale 0-100, read-out: Plant response rating, Oat, Wild): 5%
- pest or weed control at 31 g/ha (wild oat; 31 g ai/ha, scale 0 to 100 (0 no effect, 100 complete control), read-out: Plant response rating, Oat, Wild): 0%
- pest or weed control at 62 g/ha (wild oat; 62 g ai/ha, scale 0 to 100 (0 no effect, 100 complete control), read-out: Plant response rating, Oat, Wild): 5%
- pest or weed control at 125 g/ha (wild oat; 125 g ai/ha, scale 0 to 100 (0 no effect, 100 complete control), read-out: Plant response rating, Oat, Wild): 10%
- pest or weed control at 62 g/ha (blackgrass; 62 g ai/ha): 10%
- pest or weed control at 16 g/ha (blackgrass; 16 g ai/ha): 5%
- pest or weed control at 31 g/ha (blackgrass; 31 g ai/ha): 5%
- pest or weed control at 125 g/ha (blackgrass; 125 g ai/ha): 15%
